Experimental data as given in US20050181509A1 (priority 2004, published 2005).

Columns and labels:
[1] = system: F. oxysporum transformants generated using pBHt2-tk (ChGPD-HSVtk); assay type: cell-based, Fusarium oxysporum
[2] = system: Aspergillus fumigatus transformants generated using pBHt2-tk (ChGPD-HSVtk); assay type: cell-based
[3] = system: Botrytis cineria transformants generated using pBHt2-tk (ChGPD-HSVtk); assay type: cell-based
[4] = system: wild-type strain of B. cineria; assay type: cell-based, Botrytis cineria
[5] = system: F. oxysporum O-685 transformants; assay type: cell-based, Fusarium oxysporum
[6] = system: transformants of N. crassa that express HSVtk; settings: HSVtk-expressing transformants; cited from earlier work
[7] = system: transformants of Cryptococcus neoformans that express HSVtk; settings: HSVtk-expressing transformants; cited from earlier work

Question: With Nc1nc(O)c2ncn(COC(CO)CO)c2n1 [Ganciclovir] as the compound, how does the sensitivity of transformants [1] read?
Answer: exhibited sensitivity

Question: What about the sensitivity of transformants [2] of the same compound?
Answer: exhibited sensitivity

Question: What about the “concentration failing to inhibit growth” value [3] of the same compound?
Answer: > 2 mM

Question: For O=c1[nH]c(=O)n([C@H]2C[C@H](O)[C@@H](CO)O2)cc1F [F2dU, 5-fluoro-2′-deoxyuridine], which sensitivity of transformants [1] is on record?
Answer: exhibited sensitivity

Question: And the “concentration required for significant growth inhibition” value [2]?
Answer: 50 µM

Question: What about the sensitivity of transformants [2] of the same compound?
Answer: exhibited sensitivity

Question: What about the “concentration sufficient to inhibit growth” value [3] of the same compound?
Answer: 5 nM

Question: What about the sensitivity of transformants [3] of the same compound?
Answer: exhibited sensitivity

Question: And the “sensitivity of wild-type strain” value [4]?
Answer: exhibited noticeable sensitivity

Question: What about the “reduction of the number of transformants relative to that generated in the presence of 0 or 5 μM F2dU” value [5] of the same compound?
Answer: 2 to 4 fold

Question: What about the sensitivity of transformants [6] of the same compound?
Answer: exhibited sensitivity

Question: What about the sensitivity of transformants [7] of the same compound?
Answer: exhibited sensitivity
